Results published in ChEMBL document CHEMBL4000250, “Synthesis of new derivatives of 21-imidazolyl-16-dehydropregnenolone as inhibitors of 5α-reductase 2 and with cytotoxic activity in cancer cells” (Bioorg Med Chem, 2017).
The source made the active and inactive calls. The calls are words filed in the database; no cut-off is given here.

Legend:
[1] = target: T1, Androgen receptor (Rattus norvegicus) (UniProt P15207); experiment: (§1) Displacement of [3H]-MIB from rat prostate cytosolic androgen receptor by liquid scintillation counting method
T1 sequence (whole entry): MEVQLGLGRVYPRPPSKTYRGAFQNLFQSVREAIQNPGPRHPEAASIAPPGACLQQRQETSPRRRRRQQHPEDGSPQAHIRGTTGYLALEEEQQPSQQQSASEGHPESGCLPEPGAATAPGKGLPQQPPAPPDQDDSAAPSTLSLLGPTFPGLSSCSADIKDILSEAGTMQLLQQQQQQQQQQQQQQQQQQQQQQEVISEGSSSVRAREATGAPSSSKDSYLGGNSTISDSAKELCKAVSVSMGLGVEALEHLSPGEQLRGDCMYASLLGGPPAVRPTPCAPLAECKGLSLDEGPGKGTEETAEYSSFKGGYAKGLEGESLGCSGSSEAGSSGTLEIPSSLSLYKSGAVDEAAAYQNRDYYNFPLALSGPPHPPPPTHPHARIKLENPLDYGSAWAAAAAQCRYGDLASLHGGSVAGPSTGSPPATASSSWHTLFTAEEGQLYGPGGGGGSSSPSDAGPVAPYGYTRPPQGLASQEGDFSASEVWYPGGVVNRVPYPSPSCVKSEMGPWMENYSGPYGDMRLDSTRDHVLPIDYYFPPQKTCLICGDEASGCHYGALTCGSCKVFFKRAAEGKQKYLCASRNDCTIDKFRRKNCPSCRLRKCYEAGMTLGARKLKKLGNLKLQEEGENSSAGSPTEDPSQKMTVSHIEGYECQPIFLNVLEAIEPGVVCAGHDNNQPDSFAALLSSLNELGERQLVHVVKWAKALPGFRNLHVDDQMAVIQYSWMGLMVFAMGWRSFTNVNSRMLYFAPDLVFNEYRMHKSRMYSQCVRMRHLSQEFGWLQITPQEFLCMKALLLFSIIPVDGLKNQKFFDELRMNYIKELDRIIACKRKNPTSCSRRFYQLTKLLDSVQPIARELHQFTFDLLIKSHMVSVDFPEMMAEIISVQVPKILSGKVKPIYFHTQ

Syrian golden hamster [2] = experiment: Hyperplasia activity in castrated golden hamster assessed as diameter of pigmented spot of flank organs at 2 mg/kg, sc administered for 6 days (reference value: 5.65 +/- 1.12 mm); type: functional, Mesocricetus auratus
SK-LU-1 = experiment: Cytotoxicity against human SKLU1 cells assessed as growth inhibition at 50 uM after 48 hrs by sulforhodamine B assay relative to control; type: functional; conditions: for inhibition of growth at 50 µM: SK-LU-1, 48 h, read-out: GI
PC-3 = experiment: Cytotoxicity against human PC3 cells assessed as growth inhibition at 50 uM after 48 hrs by sulforhodamine B assay relative to control; type: functional; conditions: for inhibition of growth at 50 µM: PC-3, 48 h, read-out: GI
Syrian golden hamster [3] = experiment: Hyperplasia activity in castrated golden hamster assessed as seminal vesicles weight at 2 mg/kg, sc co-administered with testosterone for 6 days (reference value: 200.6 +/- 55 mg); type: functional, Mesocricetus auratus
MCF7 = experiment: Cytotoxicity against human MCF7 cells assessed as growth inhibition at 50 uM after 48 hrs by sulforhodamine B assay relative to control; type: functional; conditions: for inhibition of growth at 50 µM: MCF7, 48 h, read-out: GI
Syrian golden hamster [4] = experiment: Hyperplasia activity in castrated golden hamster assessed as prostate weight at 2 mg/kg, sc co-administered with testosterone for 6 days (reference value: 98 +/- 12.6 mg); type: functional, Mesocricetus auratus
[5] = target: T2, 3-oxo-5-alpha-steroid 4-dehydrogenase 2 (Homo sapiens, UniProt P31213); experiment: Inhibition of human prostate 5-alpha reductase 2 assessed as decrease in conversion of testosterone to dihydrotestosterone by chromatographic method
T2 sequence (P31213 whole entry): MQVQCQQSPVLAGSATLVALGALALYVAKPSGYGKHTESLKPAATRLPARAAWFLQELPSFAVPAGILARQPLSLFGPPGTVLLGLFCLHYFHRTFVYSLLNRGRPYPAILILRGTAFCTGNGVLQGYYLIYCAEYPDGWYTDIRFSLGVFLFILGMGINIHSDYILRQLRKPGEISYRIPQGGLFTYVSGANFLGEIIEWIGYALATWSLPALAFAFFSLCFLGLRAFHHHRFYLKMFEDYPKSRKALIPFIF

Syrian golden hamster [6] = experiment: Toxicity in castrated golden hamster at 2 mg/kg, sc co-administered with testosterone for 6 days; type: organism-based, Mesocricetus auratus; conditions: in vivo, 144 h
[7] = target: T3, 3-oxo-5-alpha-steroid 4-dehydrogenase 1 (Rattus norvegicus, UniProt P24008); experiment: Inhibition of rat liver microsomal 5-alpha reductase 1 assessed as decrease in conversion of testosterone to dihydrotestosterone by chromatographic method
T3 sequence (P24008 whole entry): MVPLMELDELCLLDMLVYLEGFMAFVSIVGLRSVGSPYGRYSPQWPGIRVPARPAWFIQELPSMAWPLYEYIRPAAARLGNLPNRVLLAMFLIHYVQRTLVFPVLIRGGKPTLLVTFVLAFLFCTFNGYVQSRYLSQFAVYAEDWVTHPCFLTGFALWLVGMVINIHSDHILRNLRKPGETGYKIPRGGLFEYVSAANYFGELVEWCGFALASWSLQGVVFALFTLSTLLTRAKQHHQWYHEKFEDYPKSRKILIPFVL

Androgen receptor = target: T4, Androgen receptor (Rattus norvegicus, UniProt P15207); experiment: as §1
T4 sequence (P15207 whole entry): T1 sequence (whole entry)

| Compound | inhibition [1] | Activity (Syrian golden hamster [2]) [mm] | growth inhibition (GI) (SK-LU-1) | growth inhibition (GI) (PC-3) | Activity (Syrian golden hamster [3]) [mg] | growth inhibition (GI) (MCF7) | Activity (Syrian golden hamster [4]) [mg] | IC50 ([5]; read-out: IC50) [nM] | Activity (Syrian golden hamster [6]) | IC50 [7] | inhibition of growth at 50 µM (SK-LU-1) [%] | inhibition of growth at 50 µM (PC-3) [%] | inhibition of growth at 50 µM (MCF7) [%] | IC50 [5] | IC50 (Androgen receptor) [nM] |
| --- | --- | --- | --- | --- | --- | --- | --- | --- | --- | --- | --- | --- | --- | --- | --- |
| C[C@]12CC[C@H](OC(=O)C3CCC3)CC1=CC[C@@H]1[C@@H]2CC[C@]2(C)C(C(=O)Cn3ccnc3)=CC[C@@H]12 | inactive | 3 | inactive | inactive | 145.2 | inactive | 71.3 | 76.4 | Non-Toxic | Not Active |  |  |  |  |  |
| CCCC(=O)O[C@H]1CC[C@@]2(C)C(=CC[C@@H]3[C@@H]2CC[C@]2(C)C(C(=O)Cn4ccnc4)=CC[C@@H]32)C1 | inactive | 1.98 |  |  | 217.45 |  | 83.43 |  | Non-Toxic | Not Active | 25.2 | 0 | 0 | Not Active |  |
| C[C@]12CC[C@H](OC(=O)C3CC3)CC1=CC[C@@H]1[C@@H]2CC[C@]2(C)C(C(=O)Cn3ccnc3)=CC[C@@H]12 | inactive | 3.4 | inactive | inactive | 160.9 | inactive | 77.1 | 711 | Non-Toxic | Not Active |  |  |  |  |  |
| C[C@]12CC[C@H](OC(=O)C3CCCCCC3)CC1=CC[C@@H]1[C@@H]2CC[C@]2(C)C(C(=O)Cn3ccnc3)=CC[C@@H]12 | inactive | 2.8 | inactive | inactive | 143.6 | inactive | 70.8 |  | Non-Toxic | Not Active |  |  |  | Not Active |  |
| C[C@]12CC[C@H](OC(=O)C3CCCCC3)CC1=CC[C@@H]1[C@@H]2CC[C@]2(C)C(C(=O)Cn3ccnc3)=CC[C@@H]12 | inactive | 2.4 | inactive | inactive | 143.68 | inactive | 54.3 | 29.3 | Non-Toxic | Not Active |  |  |  |  |  |
| C[C@@H]1CC2=CC(=O)CC[C@@H]2[C@H]2CC[C@@]3(C)[C@@H](CC[C@]3(C)O)[C@@H]21 [MIBOLERONE] |  |  |  |  |  |  |  |  |  |  |  |  |  |  | 1 |
| CC(=O)O[C@H]1CC[C@@]2(C)C(=CC[C@@H]3[C@@H]2CC[C@]2(C)C(C(=O)Cn4ccnc4)=CC[C@@H]32)C1 | inactive | 3.06 |  |  | 200.5 |  | 85.8 | 122000 | Non-Toxic | Not Active | 96.7 | 79.6 | 77.9 |  |  |
| CCCCC(=O)O[C@H]1CC[C@@]2(C)C(=CC[C@@H]3[C@@H]2CC[C@]2(C)C(C(=O)Cn4ccnc4)=CC[C@@H]32)C1 | inactive | 2.94 |  |  | 198.33 |  | 80.93 |  | Non-Toxic | Not Active | 39.2 | 23.7 | 51.3 | Not Active |  |
| CCCCCC(=O)O[C@H]1CC[C@@]2(C)C(=CC[C@@H]3[C@@H]2CC[C@]2(C)C(C(=O)Cn4ccnc4)=CC[C@@H]32)C1 | inactive | 3.36 |  |  | 198.33 |  | 71.85 |  | Non-Toxic | Not Active | 28.5 | 17.2 | 28.1 | Not Active |  |
| C[C@]12CC[C@H](O)CC1=CC[C@@H]1[C@@H]2CC[C@]2(C)C(C(=O)Cn3ccnc3)=CC[C@@H]12 | inactive |  |  |  |  |  |  | 119000 |  | Not Active | 74.8 | 96.2 | 89.4 |  |  |
| CCC(=O)O[C@H]1CC[C@@]2(C)C(=CC[C@@H]3[C@@H]2CC[C@]2(C)C(C(=O)Cn4ccnc4)=CC[C@@H]32)C1 | inactive | 1.8 |  |  | 231.7 |  | 88.4 |  | Non-Toxic | Not Active | 16.8 | 22.6 | 0 | Not Active |  |
| C[C@]12CC[C@H](OC(=O)C3CCCC3)CC1=CC[C@@H]1[C@@H]2CC[C@]2(C)C(C(=O)Cn3ccnc3)=CC[C@@H]12 | inactive | 2 | inactive | inactive | 143.7 | inactive | 65.1 | 35 | Non-Toxic | Not Active |  |  |  |  |  |
| CC(=O)O[C@H]1CC[C@@]2(C)C(=CC[C@@H]3[C@@H]2CC[C@]2(C)C(C(C)=O)=CC[C@@H]32)C1 | inactive |  |  |  |  |  |  |  |  | Not Active | 12.8 | 21.4 | 25.5 | Not Active |  |
